Test results as given in ChEMBL document CHEMBL5034015, “Structure-Based Optimization of 3-Phenyl-N-(2-(3-phenylureido)ethyl)thiophene-2-sulfonamide Derivatives as Selective Mcl-1 Inhibitors” (J Med Chem, 2021).
Activity calls are given as the source filed them.

Experiments:
HeLa = assay: cells; conditions: Homo sapiens, 48 h
Description: Cytotoxicity against human HeLa cells assessed as inhibition of cell growth incubated for 48 hrs by CCK8 assay

[1] = molecular target: T1, Induced myeloid leukemia cell differentiation protein Mcl-1 (Homo sapiens, UniProt Q07820); assay: Binding affinity to full length human MCL1 expressed in Escherichia coli BL21 (DE3) assessed as inhibition constant preincubated for 30 mins followed by 5-FAM-QEDIIIINIARHLAQVGDSMD-RSIPPG tracer addition and measured after 20 mins by fluorescence polarization assay
T1 sequence (Q07820 whole entry): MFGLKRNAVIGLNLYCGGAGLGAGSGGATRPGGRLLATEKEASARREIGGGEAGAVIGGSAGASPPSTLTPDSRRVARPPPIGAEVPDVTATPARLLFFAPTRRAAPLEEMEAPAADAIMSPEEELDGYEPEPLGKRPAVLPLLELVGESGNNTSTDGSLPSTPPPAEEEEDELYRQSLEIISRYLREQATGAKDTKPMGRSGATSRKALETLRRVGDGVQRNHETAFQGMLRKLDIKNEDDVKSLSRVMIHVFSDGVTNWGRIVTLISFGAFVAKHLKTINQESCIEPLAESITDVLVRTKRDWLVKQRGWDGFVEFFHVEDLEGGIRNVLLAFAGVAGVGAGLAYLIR

[2] = molecular target: T2, Apoptosis regulator Bcl-2 (Homo sapiens, UniProt P10415); assay: Binding affinity to full length human Bcl-2 expressed in Escherichia coli BL21 (DE3) at up to 100 uM preincubated for 30 mins followed by 5-FAM-QEDIIIINIARHLAQVGDSMD-RSIPPG tracer addition and measured after 20 mins by fluorescence polarization assay; conditions: dose microM <=100, time 50.0 min
T2 sequence (P10415 whole entry): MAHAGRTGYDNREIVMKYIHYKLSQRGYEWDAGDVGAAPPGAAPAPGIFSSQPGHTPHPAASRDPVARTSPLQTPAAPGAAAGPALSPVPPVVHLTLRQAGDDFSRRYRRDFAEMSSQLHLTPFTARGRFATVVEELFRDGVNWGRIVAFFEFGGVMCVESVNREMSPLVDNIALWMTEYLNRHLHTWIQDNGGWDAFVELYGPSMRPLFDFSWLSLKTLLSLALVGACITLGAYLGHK

Bcl-2-like protein 1 [3] = molecular target: T3, Bcl-2-like protein 1 (Homo sapiens, UniProt Q07817); assay: Binding affinity to full length human Bcl-xl expressed in Escherichia coli BL21 (DE3) at up to 100 uM preincubated for 30 mins followed by 5-FAM-QEDIIIINIARHLAQVGDSMD-RSIPPG tracer addition and measured after 20 mins by fluorescence polarization assay; conditions: dose microM <=100, time 50.0 min
T3 sequence (Q07817 whole entry): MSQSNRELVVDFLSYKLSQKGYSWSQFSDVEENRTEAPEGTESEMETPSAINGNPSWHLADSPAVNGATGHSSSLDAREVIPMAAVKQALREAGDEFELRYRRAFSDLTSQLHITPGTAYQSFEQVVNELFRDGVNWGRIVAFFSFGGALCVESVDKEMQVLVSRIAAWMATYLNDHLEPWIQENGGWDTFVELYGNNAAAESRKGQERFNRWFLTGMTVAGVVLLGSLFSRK

RS4-11 = assay: cells; conditions: Homo sapiens, RS4-11, 48 h
Description: Cytotoxicity against human RS4-11 cells assessed as inhibition of cell growth incubated for 48 hrs by CCK8 assay

HEK-293T = assay: Cytotoxicity against HEK293T cells assessed as reduction in cell viability incubated for 48 hrs by CCK8 assay; conditions: Homo sapiens
HL-60 = assay: cells; conditions: Homo sapiens, HL-60, 48 h
Description: Cytotoxicity against human HL-60 cells assessed as inhibition of cell growth incubated for 48 hrs by CCK8 assay

[4] = molecular target: T2, Apoptosis regulator Bcl-2; assay: Binding affinity to full length human Bcl-2 expressed in Escherichia coli BL21 (DE3) at 100 uM preincubated for 30 mins followed by 5-FAM-QEDIIIINIARHLAQVGDSMD-RSIPPG tracer addition and measured after 20 mins by fluorescence polarization assay relative to control; conditions: time 50.0 min
Bcl-2-like protein 1 [5] = molecular target: T3, Bcl-2-like protein 1; assay: Binding affinity to full length human Bcl-xl expressed in Escherichia coli BL21 (DE3) at 100 uM preincubated for 30 mins followed by 5-FAM-QEDIIIINIARHLAQVGDSMD-RSIPPG tracer addition and measured after 20 mins by fluorescence polarization assay relative to control; conditions: time 50.0 min
[6] = molecular target: T1, Induced myeloid leukemia cell differentiation protein Mcl-1; assay: Binding affinity to full length human MCL1 expressed in Escherichia coli BL21 (DE3) at 100 uM preincubated for 30 mins followed by 5-FAM-QEDIIIINIARHLAQVGDSMD-RSIPPG tracer addition and measured after 20 mins by fluorescence polarization assay relative to control; conditions: time 50.0 min
[7] = molecular target: T1, Induced myeloid leukemia cell differentiation protein Mcl-1; assay: Binding affinity to full length human MCL1 expressed in Escherichia coli BL21 (DE3) at up to 100 uM preincubated for 30 mins followed by 5-FAM-QEDIIIINIARHLAQVGDSMD-RSIPPG tracer addition and measured after 20 mins by fluorescence polarization assay; conditions: dose microM <=100, time 50.0 min

IC50 (HeLa) [µM] | Ki [1] [µM] | Activity [2] | Activity (Bcl-2-like protein 1 [3]) | IC50 (RS4-11) [µM] | IC50 (HL-60) [µM] | inhibition [4] [%] | inhibition (Bcl-2-like protein 1 [5]) [%] | inhibition [6] [%] | Activity [7] | SMILES | IC50 (HEK-293T) [µM]
> 20 | 1.6 | inactive | inactive | > 20 | > 50 |  |  |  |  | Cc1cc(C)cc(NC(=O)NCCNS(=O)(=O)c2ccc(-c3ccccc3Oc3ccc(N)cc3)s2)c1 | > 20
> 20 |  |  |  | 14.9 | > 20 | 15 | 33 | 28 |  | COc1ccc(Oc2ccccc2-c2ccsc2S(=O)(=O)N2CCN(C(=O)Nc3ccc(F)cc3)CC2)cc1OC | > 50
> 20 |  |  |  | 9.8 | 4.5 | 30 | 34 | 74 |  | O=C(Nc1cccc([N+](=O)[O-])c1)N1CCN(S(=O)(=O)c2sccc2-c2ccccc2Oc2ccc(O)c(O)c2)CC1 | > 20
> 50 |  |  |  | > 50 | > 20 | 23 | 24 | 44 |  | COc1ccc(Oc2ccccc2-c2ccsc2S(=O)(=O)N2CCN(C(=O)Nc3cc(C(F)(F)F)cc(C(F)(F)F)c3)CC2)cc1OC | > 20
> 50 |  |  |  | > 50 | > 50 | 16 | 27 | 26 |  | COc1ccc(Oc2ccc([N+](=O)[O-])cc2-c2ccsc2S(=O)(=O)N2CCN(C(=S)Nc3ccc([N+](=O)[O-])cc3)CC2)cc1OC | > 50
> 50 |  |  |  | > 50 | > 50 | 16 | 18 | 33 |  | COc1ccc(Oc2ccccc2-c2ccsc2S(=O)(=O)N2CCN(C(=S)Nc3ccc([N+](=O)[O-])cc3)CC2)cc1OC | > 20
> 50 |  |  |  | > 50 | > 50 | 18 | 19 | 31 |  | COc1ccc(Oc2ccccc2-c2ccsc2S(=O)(=O)N2CCN(C(=O)Nc3cccc([N+](=O)[O-])c3)CC2)cc1OC | > 20
8 | 0.73 | inactive | inactive | 4.8 | 3.2 |  |  |  |  | Cc1ccc(-c2ccsc2S(=O)(=O)NCCNC(=S)Nc2cc(C(F)(F)F)cc(C(F)(F)F)c2)c(Oc2ccc(O)c(O)c2)c1 | 8
> 20 | 4.6 | inactive | inactive | > 50 | > 50 |  |  |  |  | COc1ccc(NC(=O)NCCNS(=O)(=O)c2ccc(-c3ccccc3Oc3ccc([N+](=O)[O-])cc3)s2)cc1 | > 20
> 50 | 13 | inactive | inactive | > 50 | > 50 |  |  |  |  | COc1cccc(NC(=S)NCCNS(=O)(=O)c2ccc(-c3ccccc3Oc3ccc([N+](=O)[O-])cc3)s2)c1 | > 20
> 50 |  |  |  | > 50 | > 50 | 19 | 44 | 37 |  | COc1ccc(Oc2ccc([N+](=O)[O-])cc2-c2ccsc2S(=O)(=O)N2CCN(C(=O)Nc3ccc([N+](=O)[O-])cc3)CC2)cc1OC | > 20
> 50 | 0.36 | inactive | inactive | 6.4 | 6.5 |  |  |  |  | CC(C)c1ccc(Oc2ccc(O)c(O)c2)c(-c2ccsc2S(=O)(=O)NCCNC(=O)Nc2cc(Cl)cc(Cl)c2)c1 | > 10
> 50 |  |  |  | 7.5 | 5.5 | 2 | 3 | 20 |  | O=S(=O)(c1sccc1-c1ccccc1Oc1ccc(O)c(O)c1)N1CCN(C(=S)Nc2ccc(Cl)cc2)CC1 | > 50
> 50 | 6 | inactive | inactive | > 20 | > 50 |  |  |  |  | COc1cccc(NC(=S)NCCNS(=O)(=O)c2sccc2-c2ccc(C)cc2Oc2ccc(O)c(O)c2)c1 | > 50
> 20 |  |  |  | 14.3 | 4.9 | 33 | 29 | 63 |  | O=C(Nc1ccc([N+](=O)[O-])cc1)N1CCN(S(=O)(=O)c2sccc2-c2ccccc2Oc2ccc(O)c(O)c2)CC1 | > 20
> 50 | 11 | inactive | inactive | > 20 | 1.7 |  |  |  |  | COc1cccc(NC(=O)NCCNS(=O)(=O)c2ccc(-c3ccccc3OCc3ccccc3)s2)c1 | > 20
> 20 |  |  |  | 7.3 | 2.2 | 20 | 12 | 72 |  | O=S(=O)(c1sccc1-c1ccccc1Oc1ccc(O)c(O)c1)N1CCN(C(=S)Nc2cc(C(F)(F)F)cc(C(F)(F)F)c2)CC1 | > 20
> 50 |  |  |  | > 50 | > 50 | 18 | 33 | 43 |  | COc1ccc(Oc2ccccc2-c2ccsc2S(=O)(=O)N2CCN(C(=S)Nc3ccc(Cl)cc3)CC2)cc1OC | > 20
> 20 | 13 | inactive | inactive | 9.1 | 6 |  |  |  |  | Cc1ccc(-c2ccsc2S(=O)(=O)NCCNC(=O)Nc2cccc([N+](=O)[O-])c2)c(Oc2ccc(O)c(O)c2)c1 | 6.8
8.3 | 12 | inactive | inactive | 5.5 | 6.9 |  |  |  |  | COc1ccc(Oc2ccc(C(C)C)cc2-c2ccsc2S(=O)(=O)NCCNC(=S)Nc2cc(C(F)(F)F)cc(C(F)(F)F)c2)cc1OC | 10.2
12 |  | inactive | inactive | 3.6 | 9.1 |  |  |  | inactive | Cc1cc(C)cc(NC(=O)NCCNS(=O)(=O)c2ccc(-c3ccccc3Oc3ccc([N+](=O)[O-])c([N+](=O)[O-])c3)s2)c1 | > 50
> 20 |  | inactive | inactive | 1.4 | 5.4 |  |  |  | inactive | COc1ccc(NC(=O)NCCNS(=O)(=O)c2ccc(-c3ccccc3Oc3ccc([N+](=O)[O-])c([N+](=O)[O-])c3)s2)cc1 | 18.5
14.8 |  |  |  | 6.8 | 8.1 | 33 | 32 | 95 |  | O=C(Nc1ccc(F)cc1)N1CCN(S(=O)(=O)c2sccc2-c2ccccc2Oc2ccc(O)c(O)c2)CC1 | 15.5
10.9 |  | inactive | inactive | 6.3 | 2.6 |  |  |  | inactive | O=S(=O)(NCCNC(=S)Nc1cc(C(F)(F)F)cc(C(F)(F)F)c1)c1ccc(-c2ccccc2O[C@H]2CC[C@@H](O)CC2)s1 | > 20
> 20 | 5.9 | inactive | inactive | 6.7 | 8.1 |  |  |  |  | O=C(NCCNS(=O)(=O)c1ccc(-c2ccccc2Oc2ccc([N+](=O)[O-])c([N+](=O)[O-])c2)s1)Nc1ccc(Cl)cc1 | > 20
10.7 |  | inactive | inactive | 5.8 | 1.8 |  |  |  | inactive | O=S(=O)(NCCNC(=S)Nc1cccc(Cl)c1)c1ccc(-c2ccccc2OCc2cccc(O)c2)s1 | 17.4
7 | 4.3 | inactive | inactive | > 50 | > 50 |  |  |  |  | O=S(=O)(NCCNC(=S)Nc1ccc(Cl)cc1)c1ccc(-c2ccccc2OCc2ccccc2)s1 | 12.1
6.8 | 1.5 | inactive | inactive | 5.1 | 2.9 |  |  |  |  | Cc1ccc(-c2ccsc2S(=O)(=O)NCCNC(=S)Nc2ccc([N+](=O)[O-])cc2)c(Oc2ccc(O)c(O)c2)c1 | 8.2
